The record followed here is paper PMC9736874, “Development of Hydroxamate Derivatives Containing a Pyrazoline Moiety as APN Inhibitors to Overcome Angiogenesis” (Molecules, 2022).

The IC50 is the concentration at which inhibition is half-maximal. Low readings indicate greater potency in that assay, high ones weaker potency in that assay. As usually defined, the melting point is the temperature of the solid-liquid transition.

Some results are limits rather than exact numbers.

The subject of one data set is HepG2 cells. Nature of the data set: Anti-proliferative assay (MTT), HepG2. Format: cell-based. Particulars: Homo sapiens, 48 h, triplicate, mean ± SD. As for the experimental part: (§1) The MTT method was used for the determination of anti-proliferative activities of selected compounds against tumor cells. Human histiocytic lymphoma cells U937, human chronic myeloid leukemia cells K562, liver carcinoma alexander cells PLC/PRF/5, human prostate cancer cells PC-3, human ovarian clear cell carcinoma cells ES-2, human hepatocellular carcinoma cells HepG2 were selected as tested tumor cell lines. Firstly, the cells were cultured in RPMI 1640 medium with 10% FBS at 37 °C in 5% CO2 humidified incubator. Cells (100 μL) in logarithmic phase were inoculated in 96-well plates and allowed to grow for 4 h. Subsequently, inhibitors (100 μL) at the tested concentration were added, followed by incubation for 48 h. Then, to the mixture was added MTT solution (20 μL, 5 mg/mL) and further incubated for 4 h. The plates were centrifuged at 800 rpm for 3 min. The supernatant was poured off and the formed formazan was dissolved in DMSO (200 μL). Finally, the mixture was shaken for 15 min and the absorbance values of the formazan solution were measured at 570 nm with a plate reader (Varioskan, Thermo, Waltham, MA, USA). All the tumor cells were owned by our laboratory.

The subject of a further data set is ES-2 cells. Nature of the data set: Anti-proliferative assay (MTT), ES-2. The format is cell-based. Particulars: Homo sapiens, 48 h, triplicate, mean ± SD. As for the experimental part: as §1
Another data set has as its system K562 cells. The data set is described as follows: Anti-proliferative assay (MTT), K562. The format is cell-based. The settings on record: Homo sapiens, 48 h, triplicate, mean ± SD. How it is done:
as §1

The subject of a further data set is PC-3 cells. Nature of the data set: Anti-proliferative assay (MTT), PC-3. Format: cell-based. Particulars: Homo sapiens, 48 h, triplicate, mean ± SD. How it is done:
as §1

The test system of the next data set is U937 cells. Nature of the data set: Anti-proliferative assay (MTT), U937. The format is cell-based. The settings on record: Homo sapiens, U-937, 48 h, triplicate, mean ± SD. As for the experimental part: as §1
The test system of the next data set is PLC/PRF/5 cells. Nature of the data set: Anti-proliferative assay (MTT), PLC/PRF/5. Format: cell-based. Particulars: Homo sapiens, 48 h, triplicate, mean ± SD. As for the experimental part: as §1
In data set [1] the target is T1, porcine kidney aminopeptidase N (APN) (Sus scrofa, UniProt P15145).
T1 construct: purchased Enzo Life Sciences; host or cells: porcine kidney microsomes (tissue-derived)
T1 sequence (P15145 1-963): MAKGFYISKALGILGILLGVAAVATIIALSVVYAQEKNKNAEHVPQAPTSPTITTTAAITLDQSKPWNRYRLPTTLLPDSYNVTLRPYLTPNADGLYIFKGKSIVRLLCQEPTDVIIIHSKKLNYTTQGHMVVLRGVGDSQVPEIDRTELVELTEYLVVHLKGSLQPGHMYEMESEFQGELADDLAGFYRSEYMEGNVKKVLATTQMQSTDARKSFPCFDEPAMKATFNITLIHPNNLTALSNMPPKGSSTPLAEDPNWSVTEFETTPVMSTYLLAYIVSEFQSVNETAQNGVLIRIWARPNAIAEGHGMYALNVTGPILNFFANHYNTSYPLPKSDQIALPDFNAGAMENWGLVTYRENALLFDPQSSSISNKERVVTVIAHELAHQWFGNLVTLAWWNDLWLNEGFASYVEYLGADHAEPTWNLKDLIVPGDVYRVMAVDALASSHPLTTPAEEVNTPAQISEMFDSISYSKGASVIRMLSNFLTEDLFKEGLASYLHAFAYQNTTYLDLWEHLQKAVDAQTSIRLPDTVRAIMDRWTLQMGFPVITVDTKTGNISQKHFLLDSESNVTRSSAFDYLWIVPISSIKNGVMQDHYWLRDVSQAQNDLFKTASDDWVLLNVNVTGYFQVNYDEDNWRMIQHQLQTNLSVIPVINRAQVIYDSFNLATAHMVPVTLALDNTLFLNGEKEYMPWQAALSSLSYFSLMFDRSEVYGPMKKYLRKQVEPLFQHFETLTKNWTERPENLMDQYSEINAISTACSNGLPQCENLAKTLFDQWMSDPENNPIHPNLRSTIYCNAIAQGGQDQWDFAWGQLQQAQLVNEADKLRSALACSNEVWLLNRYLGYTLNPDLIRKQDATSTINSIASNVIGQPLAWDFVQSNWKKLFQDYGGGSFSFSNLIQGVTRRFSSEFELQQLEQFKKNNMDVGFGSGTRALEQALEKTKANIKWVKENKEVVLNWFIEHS
Nature of the data set: Enzymatic inhibition assay against APN in vitro (L-Leu-p-nitroanilide substrate). The format is biochemical. The settings on record: for IC50: soluble APN from porcine kidney microsomal, 37 °C, 30 min, triplicate, mean ± SD. As for the experimental part:
The enzymatic inhibitory activities of target compounds were evaluated using L-Leu-p-nitroanilide (Sigma-Aldrich, St. Louis, MO, USA) as substrate and soluble APN from porcine kidney microsomal (Enzo Life Sciences, Farmingdale, NY, USA) as enzyme. Firstly, the substrate was dissolved in DMSO to a concentration of 16 mmol/L and the enzyme was dissolved in buffer solution of 50 mM PBS (pH = 7.2) for a concentration of 0.15 IU/L. Subsequently, inhibitors (40 μL) and PBS (145 μL) were added into the 96-well plates, followed by the addition of substrate (5 μL) and enzyme (10 μL). After incubation at 37 °C for 30 min, the absorbance values were measured at 405 nm with a plate reader (Varioskan, Thermo Fisher Scientific, Waltham, MA, USA).

In a further data set the test system is rat thoracic aorta rings. Nature of the data set: Rat aortic ring assay (ex vivo anti-angiogenesis). Format: cell-based, Sprague Dawley rats. How it is done:
The thoracic aortas were separated from 8- to 10-week-old male Sprague Dawley rats and cut into rings with a 1-mm-long cross-section after removal of the connective tissues around the aortas. The fresh aortic ring was added into the 96-well plates pre-coated with matrigel (50 μL, BD bioscience), and covered with another 50 μL of matrigel. After incubation at 37 °C in 5% CO2 for 0.5 h, the tested compounds (100 μL) in M199 culture medium with 10% FBS was added to the mixture and incubated at 37 °C in 5% CO2 for 9 d. For the treatment group, the M199 culture medium with 10% FBS and inhibitors was changed every three days. For the control group, the M199 culture medium with 10% FBS and 0.5% DMSO was changed every three days. The formed micro-vessels were photographed by inverted microscope at 100× magnification. Experiments were repeated three times. All experiments involving laboratory animals were performed with the approval of the Laboratory Animal Welfare Review Committee of Shandong University of Traditional Chinese Medicine.

Regarding `CC(C)C[C@H](NC(=O)[C@@H](O)[C@H](N)Cc1ccccc1)C(=O)O` [Bestatin, bestatin, reference compound], the IC50 in the data set with HepG2 cells, in the data set with ES-2 cells, in the data set with K562 cells, in the data set with PC-3 cells, with U937 cells and in the data set on PLC/PRF/5 cells was above 500000 nM each time.

In turn, `CC(=O)N1N=C(c2c(Cl)cccc2Cl)CC1c1ccccc1OCC(=O)NO` (stereo not drawn) [Compound 14o, 2-(2-(1-Acetyl-3-(2,6-dichlorophenyl)-4,5-dihydro-1H-pyrazol-5-yl)phenoxy)-N-hydroxyacetamide] gave a melting point of 174 to 176 °C. In addition, the midpoint of inhibition with HepG2 cells, the IC50, lay at 84200 ± 7600 nM. Also, in the data set with ES-2 cells, the IC50 is 115000 ± 9700 nM. Besides, in data set [1] (ratio of APN IC50 values), the “fold more potent against APN than lead compound 13c” value is recorded as “over 9 fold” and the “fold more potent against APN than positive control bestatin” value is recorded as “over 1419 fold”. In data set [1], this compound came in with an IC50 of 6.2 ± 0.4 nM. The same compound displayed an IC50 in the data set with K562 cells of 10400 ± 1200 nM. In the data set on PC-3 cells, this compound returned an IC50 of 45800 ± 4100 nM. This compound also returned an IC50 in the data set on U937 cells of 38300 ± 3600 nM. The “growth of micro-vessels derived from the thoracic aorta rings” value in the data set with rat thoracic aorta rings (1 μM and 50 μM, 9 d incubation) is “could prevent the growth of micro-vessels derived from the thoracic aorta rings in a dose–dependent manner”. For the same compound, the “micro-vessels at 50 μM compared with the group treated with 1 μM” value in the data set with rat thoracic aorta rings (50 μM, 9 d incubation) was “obviously reduced micro-vessels”. In addition, the “anti-angiogenic activity compared with bestatin” value in the data set on rat thoracic aorta rings (same concentration of 50 μM) was “much better than that of bestatin”. The compound further had a 50% inhibitory concentration (IC50) with PLC/PRF/5 cells of 88500 ± 7400 nM.

Compound `COc1cccc(OC)c1C1=NN(C(C)=O)C(c2ccccc2OCC(=O)NO)C1` (stereo not drawn) [Compound 14m, 2-(2-(1-Acetyl-3-(2,6-dimethoxyphenyl)-4,5-dihydro-1H-pyrazol-5-yl)phenoxy)-N-hydroxyacetamide] registered a melting point of 178 to 180 °C. Besides, the IC50 in [1] worked out at 200 ± 10 nM.

Compound `CC(=O)N1N=C(c2ccccc2F)CC1c1ccccc1OCC(=O)NO` (stereo not drawn) [Compound 14g, 2-(2-(1-Acetyl-3-(2-fluorophenyl)-4,5-dihydro-1H-pyrazol-5-yl)phenoxy)-N-hydroxy acetamide] showed a melting point of 176 to 178 °C. In addition, the IC50 in data set [1] turned out to be 250 ± 10 nM.

With `CC(=O)N1N=C(c2ccccc2OCc2ccccc2Br)CC1c1ccccc1OCC(=O)NO` (stereo not drawn) [Compound 14cc, 2-(2-(1-Acetyl-3-(2-((2-bromobenzyl)oxy)phenyl)-4,5-dihydro-1H-pyrazol-5-yl)phenoxy)-N-hydroxyacetamide], the melting point was 82 to 84 °C. Also, the IC50 in [1] was found to be 68 ± 4 nM.

Compound `NC(=O)N1N=C(c2ccccc2I)CC1c1cc(Br)ccc1OCC(=O)NO` (stereo not drawn) [Compound 14v, 5-(5-Bromo-2-(2-(hydroxyamino)-2-oxoethoxy)phenyl)-3-(2-iodophenyl)-4,5-dihydro-1H-pyrazole-1-carboxamide] came in with a melting point of 202 to 204 °C. In data set [1], this compound returned an IC50 of 540 ± 40 nM.

As for `CC(=O)N1N=C(c2ccccc2I)CC1c1c(Br)cccc1OCC(=O)NO` (stereo not drawn) [Compound 14w, 2-(2-(1-Acetyl-3-(2-iodophenyl)-4,5-dihydro-1H-pyrazol-5-yl)-3-bromophenoxy)-N-hydroxyacetamide], the melting point lay in the range of 152 to 154 °C. For the same compound, in data set [1], the IC50 was 24 ± 1 nM.

Take `NC(=O)N1N=C(c2ccccc2OCc2ccc(Br)cc2)CC1c1ccccc1OCC(=O)NO` (stereo not drawn) [Compound 14hh, 3-(2-((4-Bromobenzyl)oxy)phenyl)-5-(2-(2-(hydroxyamino)-2-oxoethoxy)phenyl)-4,5-dihydro-1H-pyrazole-1-carboxamide]: the melting point fell in the range of 96 to 98 °C. In addition, in data set [1], inhibition was half-maximal at 550 ± 40 nM (IC50).

In the case of `CC(=O)N1N=C(c2ccccc2I)CC1c1ccc(Br)cc1OCC(=O)NO` (stereo not drawn) [Compound 14s, 2-(2-(1-Acetyl-3-(2-iodophenyl)-4,5-dihydro-1H-pyrazol-5-yl)-5-bromophenoxy)-N-hydroxyacetamide], the melting point fell in the range of 168 to 170 °C. The same compound came in with an IC50 in [1] of 2100 ± 200 nM.

Regarding `COc1cccc(OC)c1C1=NN(C(N)=O)C(c2ccccc2OCC(=O)NO)C1` (stereo not drawn) [Compound 14n, 3-(2,6-Dimethoxyphenyl)-5-(2-(2-(hydroxyamino)-2-oxoethoxy)phenyl)-4,5-dihydro-1H-pyrazole-1-carboxamide], the melting point fell in the range of 212 to 214 °C. Moreover, the IC50 in data set [1] was found to be 440 ± 30 nM.

Turning to `CC(=O)N1N=C(c2ccccc2Br)CC1c1ccccc1OCC(=O)NO` (stereo not drawn) [Compound 14a, 2-(2-(1-Acetyl-3-(2-bromophenyl)-4,5-dihydro-1H-pyrazol-5-yl)phenoxy)-N-hydroxy acetamide], the melting point lay in the range of 162 to 164 °C. Also, the IC50 in data set [1] was 46 ± 3 nM.

As to `CC(=O)N1N=C(c2ccccc2I)CC1c1cc(Br)ccc1OCC(=O)NO` (stereo not drawn) [Compound 14u, 2-(2-(1-Acetyl-3-(2-iodophenyl)-4,5-dihydro-1H-pyrazol-5-yl)-4-bromophenoxy)-N-hydroxyacetamide], the melting point was in the range of 106 to 108 °C. Further, the IC50 in data set [1] is 370 ± 20 nM.
